Source: patent US20160244436A1, “NOVEL FUNCTIONALIZED 5-(PHENOXYMETHYL)-1,3-DIOXANE ANALOGS EXHIBITING CYTOCHROME P450 INHIBITION AND THEIR METHOD OF USE” (CORTENDO AB (PUBL), priority 2013, published 2016)

Test: Pharmacokinetic studies in the guinea pig (1 mg/kg IV, 10 mg/kg oral)
Format: in vivo
Method: Pharmacokinetic studies in the guinea pig were run using 1 mg/kg IV dosing (20% DMA, 40% TEG, 40% water) and 10 mg/kg oral dosing (2% Tween-80, 98% HPMC (1% water)).

## CC(=O)N1CCN(c2ccc(CO[C@H]3CO[C@](Cn4ccnc4)(c4ccc(Cl)cc4Cl)OC3)cc2)CC1 [drawing 113]
In vivo, 10 mg/kg oral vs 1 mg/kg IV
  bioavailability: 184%
oral, 10 mg/kg
  AUC0-inf: 14891 ng·h/mL
  AUC0-last: 8231 ng·h/mL
  AUCExtra: 43.93%
  Cmax: 1018 ng/mL
  MRT0-last: 5.56 h
  Tmax: 3 h
  t1/2: 6.0 h
oral, 10 mg/kg, dose-normalised AUC
  DNAUC (0-inf): 823.1
oral, 10 mg/kg, fit of terminal phase
  Rsq: 0.91
